Data on eleven molecules can be found in patent US20240376097A1, “BCL-2 Inhibitor” (BeiGene Ltd., priority 2020, published 2024).

The subject of test [1] is recombinant human Bcl-2-G101V protein. In words: Bcl-2-G101V TR-FRET Assay. Type of test: binding. Conditions: ratio of biochemical IC50 Bcl-2 G101V / Bcl-2 WT. The method, boiled down:
(§1)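 Ex337/em490 & 520 nm TR-FRET; % inhibition of Bcl-2-G101V–ligand interaction from 490:520 ratio vs. increasing compound conc.; IC50 by 4-parameter logistic fit.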

For test [2], the target named is recombinant human Bcl-2-G101V protein (Homo sapiens (Human), UniProt P10415, G101V). In words: Bcl-2-G101V TR-FRET Assay. It counts as binding. To be noted: Bcl-2 G101V mutant, TR-FRET; read-out: Biochemical assay (IC50, nM) Bcl-2 G101V. The method, boiled down: as §1
For orientation: In TR-FRET formats the signal depends on donor and acceptor labels being close together.

In test [3] the target is Recombinant human Bcl-2 protein (Homo sapiens (Human), UniProt P10415). In words: Bcl-2 TR-FRET Assay. Type of test: binding. Conditions: Bcl-2 wild type, TR-FRET; read-out: Biochemical assay (IC50, nM) Bcl-2 WT. In short, it runs like this: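 0.05 nM recombinant Bcl-2 preincubated 0.5 h at room temperature with 10-point compound dilutions (top final 1, 0.1, 0.02 or 0.01 uM) in pH 7.5 phosphate buffer. FITC-Bak peptide (0.5 nM) and anti-6His Tb cryptate then added for 1 h. TR-FRET read; IC50 from four-parameter logistic fit.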

For test [4], the system named is RS4;11 (BCL-2 dependent acute lymphoblastic leukemia cell line). In words: RS4;11 Cell Proliferation Assay. Type of test: cell-based. To be noted: Homo sapiens, RS4-11, RS4;11 cells, read-out: Cellular proliferation assay (IC50, nM) RS4. In short, it runs like this: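 RS4;11 cells, 50,000 per well in RPMI-1640 with 10% FBS, treated 48 h at 37 °C with a 10-point dilution series topping at 1 μM. Viability read by CellTiter-Glo ATP luminescence; mean IC50 reported.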

Test [5] deals with BCL-2 G101V knock-in cell line H96 (derive from RS4;11). In words: Bcl 2-G101V Knock-In RS4;11 Cell Proliferation Assay. Conditions: Homo sapiens, RS4;11 Bcl-2 G101V knock-in clone H96, 48 hrs, CellTiter-GLO, read-out: Cellular proliferation assay (IC50, nM) RS4. Type of test: cell-based. The method, boiled down: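 H96, a CRISPR-generated RS4;11 clone carrying BCL2-G101V knock-in (WES/RNA-seq validated), seeded 50,000 per well and exposed 48 h at 37 °C to 10-point dilutions topping at 1 or 10 μM. Viability by CellTiter-Glo luminescence; mean IC50.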
In general terms: ATP-based viability assays read luminescence as a measure of living cells.

Structures are written as SMILES.

Take `CC(C)c1ccccc1C1CN(Cc2ccc3c(c2)CCCC3)CCN1C1CC2(CCN(c3ccc(C(=O)NS(=O)(=O)c4ccc(NC[C@H]5CC[C@](C)(O)CC5)c([N+](=O)[O-])c4)c(Oc4cnc5[nH]ccc5c4)c3)CC2)C1` (stereo partly shown) [Example 54, 2-((1H-pyrrolo[2,3-b]pyridin-5-yl)oxy)-N-((4-((((1r,4r)-4-hydroxy-4-methylcyclohexyl)methyl)amino)-3-nitrophenyl)sulfonyl)-4-(2-(2-(2-isopropylphenyl)-4-((5,6,7,8-tetrahydronaphthalen-2-yl)methyl)piperazin-1-yl)-7-azaspiro[3.5]nonan-7-yl)benzamide]: the “Ratio of Bcl-2 G101V/WT” value in test [1] was 6.2. Also, the IC50 in test [2] is 4.7 nM; in test [3] it was 0.76 nM; in test [4], 0.79 nM; in test [5], 11.7 nM.
In the same order, the values of `COc1ccc(CN2CCN(C3CC4(CCN(c5ccc(C(=O)NS(=O)(=O)c6ccc(NC[C@H]7CC[C@](C)(O)CC7)c([N+](=O)[O-])c6)c(Oc6cnc7[nH]ccc7c6)c5)CC4)C3)C(c3ccccc3C(C)C)C2)cc1C1CC1` (stereo partly shown) [Example 136, 2-((1H-pyrrolo[2,3-b]pyridin-5-yl)oxy)-4-(2-(4-(3-cyclopropyl-4-methoxybenzyl)-2-(2-isopropylphenyl)piperazin-1-yl)-7-azaspiro[3.5]nonan-7-yl)-N-((4-((((1r,4r)-4-hydroxy-4-methylcyclohexyl)methyl)amino)-3-nitrophenyl)sulfonyl)benzamide] are 3.8, 2.9 nM, 0.75 nM, 0.51 nM and 4.6 nM.
With `CC(C)c1ccccc1[C@@H]1CN(Cc2cccc3c2OCC(C)(C)O3)CCN1C1CC2(C1)CN(c1ccc(C(=O)NS(=O)(=O)c3ccc(NC[C@H]4CC[C@](C)(O)CC4)c([N+](=O)[O-])c3)c(Oc3cnc4[nH]cc(F)c4c3)c1)C2` [Example 315, 4-(6-((R)-4-((2,2-dimethyl-2,3-dihydrobenzo[b][1,4]dioxin-5-yl)methyl)-2-(2-isopropylphenyl)piperazin-1-yl)-2-azaspiro[3.3]heptan-2-yl)-2-((3-fluoro-1H-pyrrolo[2,3-b]pyridin-5-yl)oxy)-N-((4-((((1r,4r)-4-hydroxy-4-methylcyclohexyl)methyl)amino)-3-nitrophenyl)sulfonyl)benzamide], the “Ratio of Bcl-2 G101V/WT” value in test [1] is on record as 3.2. The IC50 came to 0.99 nM in test [2], 0.31 nM in test [3], 0.18 nM in test [4] and 0.86 nM in test [5].
In the same order, the values of `CC(C)c1ccccc1[C@@H]1CN(C2CC2)CCN1C1CC2(CCN(c3ccc(C(=O)NS(=O)(=O)c4ccc(NC[C@H]5CC[C@](C)(O)CC5)c([N+](=O)[O-])c4)c(Oc4cnc5[nH]ccc5c4)c3)CC2)C1` (single isomer, unassigned) [Example 4, 2-((1H-pyrrolo[2,3-b]pyridin-5-yl)oxy)-4-(2-((R or S)-4-cyclopropyl-2-(2-isopropylphenyl)piperazin-1-yl)-7-azaspir[3.5]nonan-7-yl)-N-((4-((((1r,4r)-4-hydroxy-4-methylcyclohexyl)methyl)amino)-3-nitrophenyl)sulfonyl)benzamide] are 35.6, 1.6 nM, 0.045 nM, 0.87 nM and 9.56 nM.
On the same counts, the results for `COc1ccc(CN2CCN(C3CC4(C3)CN(c3ccc(C(=O)NS(=O)(=O)c5ccc(NC[C@H]6CC[C@](C)(O)CC6)c([N+](=O)[O-])c5)c(Oc5cnc6[nH]ccc6c5)c3)C4)[C@H](c3ccccc3C(C)C)C2)cn1` [Example 254, 2-((1H-pyrrolo[2,3-b]pyridin-5-yl)oxy)-N-((4-((((1r,4r)-4-hydroxy-4-methylcyclohexyl)methyl)amino)-3-nitrophenyl)sulfonyl)-4-(6-((R)-2-(2-isopropylphenyl)-4-((6-methoxypyridin-3-yl)methyl)piperazin-1-yl)-2-azaspiro[3.3]heptan-2-yl)benzamide] are 3.9, 0.067 nM, 0.017 nM, 0.09 nM and 0.25 nM.
On the same counts, the results for `COc1cc(CN2CCN(C3CC4(CCN(c5ccc(C(=O)NS(=O)(=O)c6ccc(NC[C@H]7CC[C@](C)(O)CC7)c([N+](=O)[O-])c6)c(Oc6cnc7[nH]ccc7c6)c5)CC4)C3)C(c3ccccc3C(C)C)C2)cc(Cl)c1OC` (stereo partly shown) [Example 148, 2-((1H-pyrrolo[2,3-b]pyridin-5-yl)oxy)-4-(2-(4-(3-chloro-4,5-dimethoxybenzyl)-2-(2-isopropylphenyl)piperazin-1-yl)-7-azaspiro[3.5]nonan-7-yl)-N-((4-((((1r,4r)-4-hydroxy-4-methylcyclohexyl)methyl)amino)-3-nitrophenyl)sulfonyl)benzamide] are 3.6, 2 nM, 0.56 nM, 0.46 nM and 2.81 nM.
In the case of `CC(C)c1ccccc1[C@@H]1CN(Cc2ccc3c(c2)OCC3)CCN1C1CC2(C1)CN(c1ccc(C(=O)NS(=O)(=O)c3ccc(NC[C@H]4CC[C@](C)(O)CC4)c([N+](=O)[O-])c3)c(Oc3cnc4[nH]cc(F)c4c3)c1)C2` [Example 297, 4-(6-((R)-4-((2,3-dihydrobenzofuran-6-yl)methyl)-2-(2-isopropylphenyl)piperazin-1-yl)-2-azaspiro[3.3]heptan-2-yl)-2-((3-fluoro-1H-pyrrolo[2,3-b]pyridin-5-yl)oxy)-N-((4-((((1r,4r)-4-hydroxy-4-methylcyclohexyl)methyl)amino)-3-nitrophenyl)sulfonyl)benzamide], the “Ratio of Bcl-2 G101V/WT” value in test [1] is 3.0. In addition, the IC50 in test [2] turned out to be 0.4 nM; in test [3], 0.13 nM; in test [4], 0.25 nM; in test [5], 1.16 nM.
In the same order, the values of `CCc1ccc(CN2CCN(C3CC4(CCN(c5ccc(C(=O)NS(=O)(=O)c6ccc(NC[C@H]7CC[C@](C)(O)CC7)c([N+](=O)[O-])c6)c(Oc6cnc7[nH]cc(F)c7c6)c5)CC4)C3)[C@H](c3ccccc3C(C)C)C2)cc1OC` [Example 266, 4-(2-((R)-4-(4-ethyl-3-methoxybenzyl)-2-(2-isopropylphenyl)piperazin-1-yl)-7-azaspiro[3.5]nonan-7-yl)-2-((3-fluoro-1H-pyrrolo[2,3-b]pyridin-5-yl)oxy)-N-((4-((((1r,4r)-4-hydroxy-4-methylcyclohexyl)methyl)amino)-3-nitrophenyl)sulfonyl) benzamide] are 3, 4.1 nM, 1.4 nM, 0.22 nM and 0.66 nM.
In the same order, the values of `[2H]C([2H])(c1ccc(OC)c(OC)c1)N1CCN(C2CC3(CCN(c4ccc(C(=O)NS(=O)(=O)c5ccc(NC[C@H]6CC[C@](C)(O)CC6)c([N+](=O)[O-])c5)c(Oc5cnc6[nH]ccc6c5)c4)CC3)C2)C(c2ccccc2C(C)C)C1` (stereo partly shown) [Example 193] are 3.4, 0.23 nM, 0.068 nM, 0.26 nM and 0.8 nM.
In the same order, the values of `COc1ccc(CN2CCN(C3CC4(CCN(c5ccc(C(=O)NS(=O)(=O)c6ccc(NC[C@H]7CC[C@](C)(O)CC7)c([N+](=O)[O-])c6)c(Oc6cnc7[nH]ccc7c6)c5)CC4)C3)C(c3ccccc3C(C)C)C2)cc1OC(F)(F)F` (stereo partly shown) [Example 163, 2-((1H-pyrrolo[2,3-b]pyridin-5-yl)oxy)-N-((4-((((1r,4r)-4-hydroxy-4-methylcyclohexyl)methyl)amino)-3-nitrophenyl)sulfonyl)-4-(2-(2-(2-isopropylphenyl)-4-(4-methoxy-3-(trifluoromethoxy)benzyl)piperazin-1-yl)-7-azaspiro[3.5]nonan-7-yl)benzamide] are 4.3, 5.5 nM, 1.3 nM, 1.08 nM and 9.2 nM.
Take `CC(C)c1ccccc1[C@H]1CN(C(C)C)CCN1C1CC2(CCN(c3ccc(C(=O)NS(=O)(=O)c4ccc(NC[C@H]5CC[C@](C)(O)CC5)c([N+](=O)[O-])c4)c(Oc4cnc5[nH]ccc5c4)c3)CC2)C1` (single isomer, unassigned) [Example 3a, 2-((1H-pyrrolo[2,3-b]pyridin-5-yl)oxy)-N-((4-((((1r,4r)-4-hydroxy-4-methylcyclohexyl)methyl)amino)-3-nitrophenyl)sulfonyl)-4-(2-((S or R)-4-isopropyl-2-(2-isopropylphenyl)piperazin-1-yl)-7-azaspiro[3.5]nonan-7-yl)benzamide]: the “Ratio of Bcl-2 G101V/WT” value in test [1] worked out at 64.7. For the same molecule, the IC50 in test [2] was determined as 2.2 nM; in test [3], 0.034 nM; in test [4], 3.67 nM; in test [5] it was 35.1 nM.
